Source: ChEMBL document CHEMBL4823289, “Conformational-Analysis-Guided Discovery of 2,3-Disubstituted Pyridine IDO1 Inhibitors” (ACS Med Chem Lett, 2021)

Experiments:
Cytochrome P450 (CYP) [1] = assay: Metabolic stability assessed as mouse CYP-mediated metabolism by measuring half life; format: ADME
[2] = molecular target: Voltage-gated inwardly rectifying potassium channel KCNH2 (Homo sapiens, UniProt Q12809); assay: Inhibition of hERG (unknown origin)
[3] = AUC (0 to 24 hrs) in nu/nu mouse xenograft model xenografted with human SK-OV-3 cells measured in tumor at 180 mg/kg, po QD; format: ADME, organism-based; parameters: time < 24 hr, route oral, dose 180 mg/kg
[4] = Oral bioavailability in rat at 10 mg/kg; format: ADME, organism-based; settings: in vivo
[5] = test system: UDP-glucuronosyltransferases (UGT); assay: Metabolic stability assessed as rat UGT-mediated metabolism by measuring half life; format: ADME
[6] = AUC in dog at 5 mg/kg, po; format: ADME, organism-based, Canis lupus familiaris; parameters: dose 5 mg/kg; settings: in vivo
[7] = Clearance in rat at 0.5 mg/kg, iv; format: ADME, organism-based; settings: in vivo
[8] = Apparent permeability of the compound at pH 7.4 by PAMPA; format: ADME
[9] = molecular target: Indoleamine 2,3-dioxygenase 1 (Mus musculus, UniProt P28776); assay: Inhibition of IDO1 in IFNgamma-stimulated mouse M109 cells preincubated for 2 hrs followed by recombinant murine IFNgamma stimulation and measured after 18 hrs by fluorescence based microplate reader assay; format: cell-based
Indoleamine 2,3-dioxygenase 1 (Mus musculus, UniProt P28776), sequence (P28776 whole entry): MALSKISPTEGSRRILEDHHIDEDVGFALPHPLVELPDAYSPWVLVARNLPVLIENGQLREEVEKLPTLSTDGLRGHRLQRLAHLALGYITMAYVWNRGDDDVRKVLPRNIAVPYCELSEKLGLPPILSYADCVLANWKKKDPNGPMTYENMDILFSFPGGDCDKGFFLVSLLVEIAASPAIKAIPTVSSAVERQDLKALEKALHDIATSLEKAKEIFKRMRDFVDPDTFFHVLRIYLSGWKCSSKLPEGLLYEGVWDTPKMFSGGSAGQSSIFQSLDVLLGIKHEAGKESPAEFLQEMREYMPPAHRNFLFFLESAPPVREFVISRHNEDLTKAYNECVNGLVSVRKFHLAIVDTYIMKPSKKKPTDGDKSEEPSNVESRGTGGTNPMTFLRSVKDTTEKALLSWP

[10] = test system: UDP-glucuronosyltransferases (UGT); assay: Metabolic stability assessed as cynomolgus monkey UGT-mediated metabolism by measuring half life; format: ADME, Macaca fascicularis
[11] = Metabolic stability in human liver microsomes assessed as parent compound remaining at 0.5 uM after 10 mins incubation by LC-MS/MS analysis relative to control; format: ADME, Microsome; settings: read-out: Activity
Cytochrome P450 (CYP) [12] = molecular target: Cytochrome P450 (CYP) (Homo sapiens, UniProt P04798+P05177+P05181+P08684+P10632+P10635+P11509+P11712+P13584+P20813+P20815+P20853+P24462+P24903+P33260+P33261+P51589+P78329+P98187+Q02928+Q08477+Q16678+Q16696+Q5TCH4+Q6VVX0+Q7Z449+Q8TAV3+Q96SQ9+Q9HB55); assay: Metabolic stability assessed as human CYP-mediated metabolism by measuring half life; format: ADME, protein assay
[13] = Apparent permeability across basolateral to apical side in human Caco-2 cells; format: ADME, cell-based
Cytochrome P450 2C8 = molecular target: T1, Cytochrome P450 2C8 (Homo sapiens, UniProt P10632); assay: Inhibition of human CYP2C8
T1 sequence (P10632 whole entry): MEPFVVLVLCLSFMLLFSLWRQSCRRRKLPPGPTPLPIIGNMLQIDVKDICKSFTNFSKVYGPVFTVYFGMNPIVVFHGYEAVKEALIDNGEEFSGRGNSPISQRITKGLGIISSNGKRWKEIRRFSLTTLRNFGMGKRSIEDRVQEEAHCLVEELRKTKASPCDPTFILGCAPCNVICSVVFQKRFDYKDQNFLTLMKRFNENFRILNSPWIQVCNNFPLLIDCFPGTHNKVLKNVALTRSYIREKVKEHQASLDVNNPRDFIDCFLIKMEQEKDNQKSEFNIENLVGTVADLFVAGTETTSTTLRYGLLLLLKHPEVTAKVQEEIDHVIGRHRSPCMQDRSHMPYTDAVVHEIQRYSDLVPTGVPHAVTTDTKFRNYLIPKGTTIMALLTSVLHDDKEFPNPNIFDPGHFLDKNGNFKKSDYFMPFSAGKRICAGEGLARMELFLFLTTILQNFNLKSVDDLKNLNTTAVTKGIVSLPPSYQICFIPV

[14] = test system: UDP-glucuronosyltransferases (UGT); assay: Metabolic stability assessed as dog UGT-mediated metabolism by measuring half life; format: ADME, Canis lupus familiaris
[15] = AUC (0 to 24 hrs) in human SK-OV-3 cells xenografted in nu/nu mouse xenograft model measured in tumor at 120 mg/kg, po QD; format: ADME, organism-based; parameters: time < 24 hr, route oral, dose 120 mg/kg
[16] = Drug metabolism in dog hepatocytes assessed as demethylated metabolite formation; format: ADME, cell-based, Canis lupus familiaris, Hepatocyte
[17] = Drug metabolism in human hepatocytes assessed as demethylated metabolite formation; format: ADME, cell-based, Hepatocyte
[18] = Clearance in dog at 1 mg/kg, iv; format: ADME, organism-based, Canis lupus familiaris; settings: in vivo
[19] = Volume of steady state distribution in mouse at 1 mg/kg, iv; format: ADME, organism-based; settings: in vivo, read-out: Vdss
[20] = molecular target: UDP-glucuronosyltransferases (UGT) (Homo sapiens, UniProt O60656+O75310+O75795+P06133+P0DTE4+P0DTE5+P16662+P19224+P22309+P22310+P35503+P35504+P36537+P54855+Q6UWM9+Q9BY64+Q9HAW7+Q9HAW8+Q9HAW9); assay: Metabolic stability assessed as human UGT-mediated metabolism by measuring half life; format: ADME, protein assay
[21] = Volume of steady state distribution in rat at 0.5 mg/kg, iv; format: ADME, organism-based; settings: in vivo, read-out: Vdss
[22] = Oral bioavailability in cynomolgus monkey at 5 mg/kg; format: ADME, organism-based, Macaca fascicularis; settings: in vivo
hERG (KCNH2) = hERG (KCNH2) (Homo sapiens, UniProt Q12809); assay: Inhibition of hERG (unknown origin) at 30 uM relative to control
hERG (KCNH2), sequence (Q12809 whole entry): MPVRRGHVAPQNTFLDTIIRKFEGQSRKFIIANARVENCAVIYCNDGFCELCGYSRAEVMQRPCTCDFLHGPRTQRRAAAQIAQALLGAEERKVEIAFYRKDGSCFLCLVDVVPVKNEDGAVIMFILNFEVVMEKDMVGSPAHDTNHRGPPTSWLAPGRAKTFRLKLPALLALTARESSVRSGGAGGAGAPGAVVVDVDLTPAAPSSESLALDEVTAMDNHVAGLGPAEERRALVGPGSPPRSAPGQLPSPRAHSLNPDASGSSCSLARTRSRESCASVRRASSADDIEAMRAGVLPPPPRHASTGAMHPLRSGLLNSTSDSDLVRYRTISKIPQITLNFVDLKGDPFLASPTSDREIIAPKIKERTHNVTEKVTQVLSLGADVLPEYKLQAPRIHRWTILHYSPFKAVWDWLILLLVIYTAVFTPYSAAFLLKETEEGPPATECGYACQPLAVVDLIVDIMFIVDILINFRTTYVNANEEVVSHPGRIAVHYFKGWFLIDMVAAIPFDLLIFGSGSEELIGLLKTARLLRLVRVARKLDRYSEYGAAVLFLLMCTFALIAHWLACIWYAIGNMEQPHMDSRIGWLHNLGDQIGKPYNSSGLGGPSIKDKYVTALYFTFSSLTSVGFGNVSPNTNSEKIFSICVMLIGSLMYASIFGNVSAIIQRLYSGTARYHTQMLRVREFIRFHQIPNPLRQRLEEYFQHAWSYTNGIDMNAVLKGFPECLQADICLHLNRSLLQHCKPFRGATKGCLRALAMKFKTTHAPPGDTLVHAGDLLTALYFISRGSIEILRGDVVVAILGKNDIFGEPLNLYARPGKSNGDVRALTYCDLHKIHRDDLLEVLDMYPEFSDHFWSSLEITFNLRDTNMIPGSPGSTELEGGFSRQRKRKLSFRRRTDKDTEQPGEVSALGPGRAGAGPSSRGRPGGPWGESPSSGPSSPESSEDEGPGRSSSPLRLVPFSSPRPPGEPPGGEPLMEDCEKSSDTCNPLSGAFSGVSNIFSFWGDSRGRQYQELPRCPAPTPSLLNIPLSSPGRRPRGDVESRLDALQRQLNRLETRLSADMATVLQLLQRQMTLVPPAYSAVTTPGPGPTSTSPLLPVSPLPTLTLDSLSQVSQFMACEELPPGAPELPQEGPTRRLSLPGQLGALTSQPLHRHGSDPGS

[23] = Half life in cynomolgus monkey at 1 mg/kg, iv; format: ADME, organism-based, Macaca fascicularis; settings: in vivo
[24] = Half life in dog at 1 mg/kg, iv; format: ADME, organism-based, Canis lupus familiaris; settings: in vivo
[25] = AUC in cynomolgus monkey at 5 mg/kg, po; format: ADME, organism-based, Macaca fascicularis; parameters: dose 5 mg/kg; settings: in vivo
[26] = Drug metabolism in cynomolgus monkey hepatocytes assessed as demethylated metabolite formation; format: ADME, cell-based, Macaca fascicularis, Hepatocyte
[27] = molecular target: T2, Indoleamine 2,3-dioxygenase 1 (Homo sapiens, UniProt P14902); assay: Inhibition of IDO1 in IFNgamma/LPS-stimulated human whole blood preincubated for 4 hrs followed by IFNgamma/LPS stimulation and incubated for 18 hrs by Rapid-fire mass spectrometry analysis; format: tissue-based
T2 sequence (P14902 whole entry): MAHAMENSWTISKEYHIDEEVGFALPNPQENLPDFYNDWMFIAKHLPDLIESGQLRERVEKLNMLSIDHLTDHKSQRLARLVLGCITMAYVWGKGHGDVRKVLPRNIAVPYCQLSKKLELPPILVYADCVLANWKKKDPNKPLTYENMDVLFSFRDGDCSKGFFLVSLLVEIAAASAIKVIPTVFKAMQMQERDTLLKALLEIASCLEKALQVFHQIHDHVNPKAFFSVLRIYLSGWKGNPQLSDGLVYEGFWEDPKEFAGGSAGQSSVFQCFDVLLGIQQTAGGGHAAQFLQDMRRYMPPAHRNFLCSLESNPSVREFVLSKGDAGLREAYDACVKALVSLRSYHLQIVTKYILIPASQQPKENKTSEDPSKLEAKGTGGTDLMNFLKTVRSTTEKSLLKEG

[28] = AUC in mouse at 10 mg/kg, po; format: ADME, organism-based; parameters: dose 10 mg/kg; settings: in vivo
Cytochrome P450 (CYP) [29] = assay: Metabolic stability assessed as dog CYP-mediated metabolism by measuring half life; format: ADME, Canis lupus familiaris
[30] = Clearance in cynomolgus monkey at 1 mg/kg, iv; format: ADME, organism-based, Macaca fascicularis; settings: in vivo
[31] = AUC in rat at 10 mg/kg, po; format: ADME, organism-based; parameters: dose 10 mg/kg; settings: in vivo
[32] = Volume of steady state distribution in cynomolgus monkey at 1 mg/kg, iv; format: ADME, organism-based, Macaca fascicularis; settings: in vivo, read-out: Vdss
Cytochrome P450 (CYP) [33] = assay: Metabolic stability assessed as cynomolgus monkey CYP-mediated metabolism by measuring half life; format: ADME, Macaca fascicularis
[34] = AUC (0 to 24 hrs) in human SK-OV-3 cells xenografted in nu/nu mouse xenograft model measured in tumor at 60 mg/kg, po QD; format: ADME, organism-based; parameters: time < 24 hr, route oral, dose 60 mg/kg
[35] = AUC in rat at 0.5 mg/kg, iv; format: ADME, organism-based; parameters: dose 0.5 mg/kg; settings: in vivo
[36] = Oral bioavailability in mouse at 10 mg/kg; format: ADME, organism-based; settings: in vivo
[37] = Half life in mouse at 1 mg/kg, iv; format: ADME, organism-based; settings: in vivo
[38] = AUC in cynomolgus monkey at 1 mg/kg, iv; format: ADME, organism-based, Macaca fascicularis; parameters: dose 1 mg/kg; settings: in vivo
[39] = Metabolic stability in mouse liver microsomes assessed as parent compound remaining at 0.5 uM after 10 mins incubation by LC-MS/MS analysis relative to control; format: ADME, Microsome; settings: read-out: Activity
[40] = Volume of steady state distribution in dog at 1 mg/kg, iv; format: ADME, organism-based, Canis lupus familiaris; settings: in vivo, read-out: Vdss
Cytochrome P450 2C19 = Cytochrome P450 2C19 (Homo sapiens, UniProt P33261); assay: Inhibition of human CYP2C19
Cytochrome P450 2C19, sequence (P33261 whole entry): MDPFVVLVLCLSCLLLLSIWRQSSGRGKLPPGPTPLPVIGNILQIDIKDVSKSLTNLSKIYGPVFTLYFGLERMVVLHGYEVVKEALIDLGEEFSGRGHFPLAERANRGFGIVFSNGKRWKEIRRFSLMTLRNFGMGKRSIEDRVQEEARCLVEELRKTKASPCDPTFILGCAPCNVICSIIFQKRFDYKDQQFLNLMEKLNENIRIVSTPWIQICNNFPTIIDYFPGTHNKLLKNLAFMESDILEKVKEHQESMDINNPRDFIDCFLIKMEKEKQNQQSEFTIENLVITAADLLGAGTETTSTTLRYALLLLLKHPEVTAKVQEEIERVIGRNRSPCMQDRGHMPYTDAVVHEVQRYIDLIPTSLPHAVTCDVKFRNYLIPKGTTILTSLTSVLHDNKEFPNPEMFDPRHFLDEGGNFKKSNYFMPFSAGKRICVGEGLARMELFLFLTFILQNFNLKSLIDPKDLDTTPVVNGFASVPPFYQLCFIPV

[41] = AUC in dog at 1 mg/kg, iv; format: ADME, organism-based, Canis lupus familiaris; parameters: dose 1 mg/kg; settings: in vivo
[42] = AUC (0 to 24 hrs) in human SK-OV-3 cells xenografted in nu/nu mouse xenograft model measured in tumor at 20 mg/kg, po QD; format: ADME, organism-based; parameters: time < 24 hr, route oral, dose 20 mg/kg
Cytochrome P450 (CYP) [43] = assay: Metabolic stability assessed as rat CYP-mediated metabolism by measuring half life; format: ADME
[44] = Half life in rat at 0.5 mg/kg, iv; format: ADME, organism-based; settings: in vivo
[45] = Metabolic stability in rat liver microsomes assessed as parent compound remaining at 0.5 uM after 10 mins incubation by LC-MS/MS analysis relative to control; format: ADME, Microsome; settings: read-out: Activity
[46] = molecular target: T2, Indoleamine 2,3-dioxygenase 1; assay: Inhibition of IDO1 in IFNgamma-stimulated human HeLa cells preincubated for 2 hrs followed by recombinant human IFNgamma stimulation and measured after 18 hrs by fluorescence based microplate reader assay
[47] = Clearance in mouse at 1 mg/kg, iv; format: ADME, organism-based; settings: in vivo
[48] = Apparent permeability across apical to basolateral side in human Caco-2 cells; format: ADME, cell-based
[49] = AUC in mouse at 1 mg/kg, iv; format: ADME, organism-based; parameters: dose 1 mg/kg; settings: in vivo
Cytochrome P450 2C9 = Cytochrome P450 2C9 (Homo sapiens, UniProt P11712); assay: Inhibition of human CYP2C9
Cytochrome P450 2C9, sequence (P11712 whole entry): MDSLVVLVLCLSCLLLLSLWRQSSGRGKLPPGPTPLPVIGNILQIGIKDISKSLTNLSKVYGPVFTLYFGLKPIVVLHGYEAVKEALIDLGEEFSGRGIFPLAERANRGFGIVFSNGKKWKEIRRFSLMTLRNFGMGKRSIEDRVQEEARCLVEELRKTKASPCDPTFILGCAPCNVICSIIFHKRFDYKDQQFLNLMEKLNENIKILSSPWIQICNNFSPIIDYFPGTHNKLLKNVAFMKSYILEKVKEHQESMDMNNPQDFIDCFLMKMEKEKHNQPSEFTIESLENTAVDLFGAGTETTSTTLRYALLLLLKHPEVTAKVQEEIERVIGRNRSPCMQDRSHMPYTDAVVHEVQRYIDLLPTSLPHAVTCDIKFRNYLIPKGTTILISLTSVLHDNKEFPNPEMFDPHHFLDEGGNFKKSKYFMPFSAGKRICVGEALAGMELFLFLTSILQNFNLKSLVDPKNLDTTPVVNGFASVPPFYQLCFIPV

[50] = Drug metabolism in rat hepatocytes assessed as demethylated metabolite formation; format: ADME, cell-based, Hepatocyte
[51] = test system: UDP-glucuronosyltransferases (UGT); assay: Metabolic stability assessed as mouse UGT-mediated metabolism by measuring half life; format: ADME
[52] = Oral bioavailability in dog at 5 mg/kg; format: ADME, organism-based, Canis lupus familiaris; settings: in vivo

Voltage-gated inwardly rectifying potassium channel KCNH2, sequence (Q12809 whole entry): as the sequence (Q12809 whole entry) above

half-life (Cytochrome P450 (CYP) [1]): 0.183 h
AUC at 24 h [3]: 13 µM·h
bioavailability [4]: 34%
half-life [5]: > 2 h
AUC [6]: 3.2 µM·h
clearance [7]: 15 mL/min/kg
Papp [8]: 107 ×10⁻⁶ cm/s
IC50 [9]: 14 nM
half-life [10]: > 2 h
remaining at 10 min, 0.5 µM [11]: 87%
half-life (Cytochrome P450 (CYP) [12]): 0.533 h
Papp B→A [13]: 5.6 ×10⁻⁶ cm/s
IC50 (Cytochrome P450 2C8): 4010 nM
half-life [14]: > 2 h
AUC at 24 h [15]: 13 µM·h
Drug metabolism [16]: Metabolite_Detected
Drug metabolism [17]: Metabolite_Detected
clearance [18]: 18 mL/min/kg
Vd [19]: 6.2 L/kg
half-life [20]: > 2 h
Vd [21]: 4 L/kg
F [22]: 4.5%
half-life [23]: 11 h
half-life [24]: 14 h
AUC [25]: 0.029 µM·h
Drug metabolism [26]: Metabolite_Detected
IC50 [27]: 2.3 nM
AUC [28]: 3.9 µM·h
half-life (Cytochrome P450 (CYP) [29]): 7 min
clearance [30]: 29 mL/min/kg
AUC [31]: 8.7 µM·h
Vd [32]: 4.5 L/kg
half-life (Cytochrome P450 (CYP) [33]): 3 min
AUC at 24 h [34]: 9.2 µM·h
AUC [35]: 1.3 µM·h
bioavailability [36]: 33%
half-life [37]: 5 h
AUC [38]: 1.3 µM·h
remaining at 10 min, 0.5 µM [39]: 60%
Vd [40]: 9 L/kg
IC50 (Cytochrome P450 2C19): 9500 nM
AUC [41]: 2.3 µM·h
AUC at 24 h [42]: 7.9 µM·h
half-life (Cytochrome P450 (CYP) [43]): 0.333 h
half-life [44]: 7.1 h
remaining at 10 min, 0.5 µM [45]: 90%
IC50 [46]: 2 nM
clearance [47]: 33 mL/min/kg
Papp A→B [48]: 12.2 ×10⁻⁶ cm/s
AUC [49]: 1.2 µM·h
IC50 (Cytochrome P450 2C9): 1890 nM
Drug metabolism [50]: Metabolite_Detected
half-life [51]: > 2 h
bioavailability [52]: 28%
SMILES: CC[C@@H](NC(=O)c1ccc(OC)nc1)[C@H]1CC[C@@H](c2ccnc(OC)c2C(F)F)CC1
IC50 [2]: 17400 nM
inhibition at 30 µM (hERG (KCNH2)): 61%
